Results on four compounds are retold here after ChEMBL document CHEMBL5120801, “Targeting Bromodomain-Selective Inhibitors of BET Proteins in Drug Discovery and Development” (J Med Chem, 2022).

For assay [1], the system named is MV4-11. The assay is described as follows: Antiproliferative activity against human MV4-11 cells by CCK-8 assay. The assay is classed as functional, cell-based.
In a further assay the target is T1, Interleukin-1 beta (Mus musculus, UniProt P10749).
T1 sequence (P10749 whole entry): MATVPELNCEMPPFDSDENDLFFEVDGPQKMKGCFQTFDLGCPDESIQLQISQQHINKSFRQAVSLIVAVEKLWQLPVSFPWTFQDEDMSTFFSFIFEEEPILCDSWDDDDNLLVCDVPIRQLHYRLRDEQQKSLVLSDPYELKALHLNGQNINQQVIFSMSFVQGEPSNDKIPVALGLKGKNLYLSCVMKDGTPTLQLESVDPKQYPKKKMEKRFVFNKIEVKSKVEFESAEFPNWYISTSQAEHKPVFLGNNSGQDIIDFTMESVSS
The assay is described as follows: Inhibition of IL-1beta in mouse BMDM cells. The assay is classed as cell-based.

Assay [2] has as its target T2, Bromodomain-containing protein 4 (Homo sapiens, UniProt O60885). The assay is described as follows: Binding affinity to BRD4-BD1 (unknown origin).
The target of assay [3] is T2, Bromodomain-containing protein 4. The experiment in a line: Binding affinity to BRD4-BD2 (unknown origin).
In assay [4] the test system is MV4-11. The assay is described as follows: Antiproliferative activity against human MV4-11 cells by Cell Titer Glo assay. The assay is classed as functional, cell-based. For orientation: ATP-based viability assays read luminescence as a measure of living cells.

The IC50 is the point on the concentration scale where inhibition reaches its midpoint. `O=c1cc(-c2ccc(O)c(O)c2)oc2c(O)c(O)ccc12` had an IC50 with MV4-11 [1] of 30200 nM. On to `COc1cc(OC)c2c(=O)[nH]c(-c3cc(C)c(OCCN4CCCC4)c(C)c3)nc2c1`, for which the midpoint of inhibition on Interleukin-1 beta, the IC50, lay at 2100 nM. In general, Ki refers to the dissociation constant of the complex between target and ligand, obtained from inhibition or displacement. On to `CCNC(=O)C1=CC2C(c3cc(S(=O)(=O)CC)ccc3Oc3c(C)cc(F)cc3C)=CN(C)C(=O)C2N1` (stereo not given), for which the Ki in assay [2] was 79 nM; in assay [3], 1.3 nM. The compound `CC(=O)N1c2ccc(-c3cc[nH]n3)cc2[C@H](Nc2ccc(C#N)cc2)C[C@@H]1C` came in with a half-maximal inhibitory concentration (IC50) in the assay with MV4-11 [4] of 8 nM.
